Numbers after ± are expanded uncertainties.
Experiments:
[1] = Liquid, Closed cell (Static) method
[2] = activity coefficient (dimensionless); of the first substance listed, at infinite dilution; xn = mol fraction of the nth substance listed; conditions: 101 kPa, Liquid, dilutor technique, x1 = 0

| SMILES | activity coefficient ([2]; 288.15 K) | activity coefficient ([2]; 298.15 K) | activity coefficient ([2]; 303.15 K) | further results |
| --- | --- | --- | --- | --- |
| CSC [2-thiapropane] | – | – | – | vapor or sublimation pressure ([1]; 293.94 K): 53.2 ± 1.2 kPa; vapor or sublimation pressure ([1]; 312.86 K): 108.8 ± 1.2 kPa |
| CCC [propane] | – | – | – | vapor or sublimation pressure ([1]; 293.94 K): 852.6 ± 2.3 kPa; vapor or sublimation pressure ([1]; 293.97 K): 853.1 ± 2.3 kPa; vapor or sublimation pressure ([1]; 312.85 K): 1358.5 ± 2.8 kPa; vapor or sublimation pressure ([1]; 312.87 K): 1361.3 ± 2.8 kPa |
| C1CCSC1 [tetrahydrothiophene] | – | – | – | vapor or sublimation pressure ([1]; 293.97 K): 2.1 ± 1.2 kPa; vapor or sublimation pressure ([1]; 312.87 K): 5.9 ± 1.2 kPa |

More lines, main results first:

| activity coefficient ([2]; 288.15 K) | activity coefficient ([2]; 298.15 K) | activity coefficient ([2]; 303.15 K) | SMILES | further results |
| --- | --- | --- | --- | --- |
| 1.5 ± 0.66 | 1.45 ± 0.52 | 1.4 ± 0.44 | CSC [2-thiapropane] + C=C(C)CC(C)(C)C | – |
| 1.77 ± 0.68 | 1.71 ± 0.52 | 1.64 ± 0.46 | CSC [2-thiapropane] + C=CCCCC | – |
| 1.77 ± 0.7 | 1.72 ± 0.54 | 1.67 ± 0.3 | CSC [2-thiapropane] + CC(C)CC(C)(C)C | – |
| 2.16 ± 0.9 | 1.95 ± 0.68 | 1.91 ± 0.6 | CSC [2-thiapropane] + CCCCCC | activity coefficient ([2]; 293.15 K): 2.04 ± 0.78 |

Source: the NIST ThermoML archive (doi:10.1016/j.fluid.2010.03.027)
